Data as given in article PMC7099768, “A positron emission tomography imaging study to confirm target engagement in the lungs of patients with idiopathic pulmonary fibrosis following a single dose of a novel inhaled αvβ6 integrin inhibitor” (Respiratory Research, 2020).

Columns and labels:
[1] = single doses up to 3000 mcg; cited from earlier work

Structure (SMILES): Cc1cc(C)n(-c2cccc([C@H](CC(=O)O)CN3CC[C@@H](CCc4ccc5c(n4)NCCC5)C3)c2)n1 [GSK3008348, (S)-3-(3-(3,5-Dimethyl-1 H-pyrazol-1-yl)phenyl)-4-((R)-3-(2-(5,6,7,8-tetrahydro-1,8-naphthyridin-2-yl)ethyl)pyrrolidin-1-yl) butanoic acid]
- Diarrhoea, n (%) (1000 mcg nebulised, N=5): 0 n (%)
- Headache, n (%) (1000 mcg nebulised, N=5): 1 (20) n (%)
- Number of participants with any AE, n (%) (1000 mcg nebulised, N=5): 3 (60) n (%)
- Urinary tract infection, n (%) (1000 mcg nebulised, N=5): 1 (20) n (%)
- Intensity and treatment relation of AEs (single nebulised 1000 mcg doses): All AEs were mild in intensity and none were considered treatment related
- Tolerability in healthy participants [1]: well tolerated
